Five molecules from patent publication US6858591B2, “Antibiotic AA 896 analogs” (Wyeth Holdings Corporation, priority 2001, dated 2005) can be followed below.

Holding throughout (assay): In vitro MIC, broth dilution
Type in all cases: cell-based
(In general: Dilution methods test growth across graded concentrations, often in twofold steps.)

One test relates to E. coli GC 4559. The settings on record: Escherichia coli, GC4559.
In a further test the test system is E. coli GC 4560. The settings on record: Escherichia coli, GC4560.
For another test, the system named is E. coli GC 3226. The settings on record: Escherichia coli, GC3226.
The subject of a further test is S. marcescens GC 4077. The settings on record: Serratia marcescens, GC4077.
In the next test the test system is C. albicans GC 3066. The settings on record: Candida albicans, GC3066.
For another test, the system named is M. morganii GC 4531. The settings on record: Morganella morganii, GC4531.
Another test relates to K. pneumoniae GC 4534. The settings on record: Klebsiella pneumoniae, GC4534.
The test system of a further test is E. cloacae GC 3783. The settings on record: Enterobacter cloacae, GC3783.
A further test deals with P. aeruginosa GC 4532. The settings on record: Pseudomonas aeruginosa, GC4532.
In a further test the test system is CNS GC 4537. Summed up: (§1)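 Broth dilution per NCCLS M7-A recommendations in Mueller-Hinton II medium, inoculum 5×10^5 CFU/ml, antibiotic range 64-0.06 μg/ml. Plates incubated 18 hours at 35° C in ambient air; MIC taken as lowest concentration inhibiting growth.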
In a further test the test system is CNS GC 4538. Summed up:
as §1

The subject of a further test is CNS GC 4547. Summed up:
as §1

A further test relates to E. faecalis GC 2242. The settings on record: Enterococcus faecalis, GC2242. Summed up:
as §1

In a further test the test system is E. faecalis GC 4555. The settings on record: Enterococcus faecalis, GC4555. In short, it runs like this:
as §1

The next test concerns E. faecalis GC 842. The settings on record: Enterococcus faecalis, GC842. Summed up: as §1
Another test has as its system S. aureus GC 1131. The settings on record: Staphylococcus aureus, GC1131. In short, it runs like this: as §1
For the next test, the system named is S. aureus GC 2216. The settings on record: Staphylococcus aureus, GC2216. Summed up:
as §1

The next test relates to S. aureus GC 4536. The settings on record: Staphylococcus aureus, GC4536. Summed up:
as §1

The next test concerns E. coli GC 2203. The settings on record: Escherichia coli, GC2203.
In another test the test system is P. aeruginosa GC 2214. The settings on record: Pseudomonas aeruginosa, GC2214.
Setting [1] is: S. marcescens GC 4077, read-out: MIC.
Where [2] appears, read: C. albicans GC 3066, read-out: MIC.
The mark [3] stands for this setting: M. morganii GC 4531, read-out: MIC.
The mark [4] stands for this setting: K. pneumoniae GC 4534, read-out: MIC.
Where [5] appears, read: E. cloacae GC 3783, read-out: MIC.
[6] abbreviates: P. aeruginosa GC 4532, read-out: MIC.
Setting [7] is: E. faecalis GC 2242, read-out: MIC.
The mark [8] stands for this setting: E. faecalis GC 4555, read-out: MIC.
[9] abbreviates: E. faecalis GC 842, read-out: MIC.
The mark [10] stands for this setting: S. aureus GC 1131, read-out: MIC.
Setting [11] is: S. aureus GC 2216, read-out: MIC.
Where [12] appears, read: S. aureus GC 4536, read-out: MIC.
Setting [13] is: P. aeruginosa GC 2214, read-out: MIC.

Molecules are shown by their SMILES. Values after ≈ are worked out from the molar mass of the structure shown. Where two headings read alike, the source gives them in different places. Some results are limits rather than exact numbers.

As usually defined, the MIC is the least concentration at which growth counts as inhibited. With `COc1ccc(Cn2c(=O)ccn([C@@H]3OC([C@H](O)[C@H](NCCCNC(=O)[C@H](C)N)C(=O)OC(C)(C)C)[C@@H](O[Si](C)(C)C(C)(C)C)[C@H]3O[Si](C)(C)C(C)(C)C)c2=O)cc1` (stereo partly drawn) [Example 15, tert-Butyl (2S,3R)-2-[(3-{[(2S)-2-aminopropanoyl]amino}propyl)amino]-3-[(3R,4R,5R)-3,4-bis{[tert-butyl(dimethyl)silyl]oxy}-5-(3-(4-methoxybenzyl)-2,4-dioxo-3,4-dihydro-1(2H)-pyrimidinyl)tetrahydro-2-furanyl]-3-hydroxypropanoate], the MIC in the test on E. coli GC 4559 (E. coli GC 4559, read-out: MIC) is above 128 µg/mL; with E. coli GC 4560 (E. coli GC 4560, read-out: MIC) it was 8 µg/mL (≈ 9.41 µM); with E. coli GC 3226 (E. coli GC 3226, read-out: MIC), above 128 µg/mL; in the test on S. marcescens GC 4077 (setting [1]), above 128 µg/mL; in the test on C. albicans GC 3066 (setting [2]) it was 64 µg/mL (≈ 75.3 µM); with M. morganii GC 4531 (setting [3]) it was 128 µg/mL (≈ 151 µM). Besides, the minimal inhibitory concentration (MIC) with K. pneumoniae GC 4534 (setting [4]) is above 128 µg/mL; with E. cloacae GC 3783 (setting [5]) it was above 128 µg/mL; in the test with P. aeruginosa GC 4532 (setting [6]), above 128 µg/mL; in the test with CNS GC 4537 (CNS GC 4537, read-out: MIC), 4 µg/mL (≈ 4.7 µM); in the test on CNS GC 4538 (CNS GC 4538, read-out: MIC) it was 4 µg/mL (≈ 4.7 µM); with CNS GC 4547 (CNS GC 4547, read-out: MIC), 8 µg/mL (≈ 9.41 µM). Moreover, the minimal inhibitory concentration (MIC) in the test with E. faecalis GC 2242 (setting [7]), with E. faecalis GC 4555 (setting [8]), in the test with E. faecalis GC 842 (setting [9]), in the test on S. aureus GC 1131 (setting [10]), in the test on S. aureus GC 2216 (setting [11]) and in the test on S. aureus GC 4536 (setting [12]) was 4 µg/mL (≈ 4.7 µM) throughout. The MIC with E. coli GC 2203 (E. coli GC 2203, read-out: MIC) was above 128 µg/mL; in the test on P. aeruginosa GC 2214 (setting [13]), 128 µg/mL (≈ 151 µM).

`COc1ccc(Cn2c(=O)ccn([C@@H]3OC([C@H](O)[C@H](NCCCNC(=O)[C@H](CC(=O)OCc4ccccc4)NC(=O)OCc4ccccc4)C(=O)OC(C)(C)C)[C@@H](O[Si](C)(C)C(C)(C)C)[C@H]3O[Si](C)(C)C(C)(C)C)c2=O)cc1` (stereo partly drawn) [Example 16, tert-Butyl (5S,12S)-5-[2-(benzyloxy)-2-oxoethyl]-12-[(R)-[(3R,4R,5R)-3,4-bis{[tert-butyl(dimethyl)silyl]oxy}-5-(3-(4-methoxybenzyl)-2,4-dioxo-3,4-dihydro-1(2H)-pyrimidinyl)tetrahydro-2-furanyl](hydroxy)methyl]-3,6-dioxo-1-phenyl-2-oxa-4,7,11-triazatridecan-13-oate]: the MIC was above 128 µg/mL in the test on E. coli GC 4559; above 128 µg/mL with E. coli GC 4560; above 128 µg/mL against E. coli GC 3226; above 128 µg/mL in the test on S. marcescens GC 4077; 128 µg/mL (≈ 114 µM) in the test on C. albicans GC 3066; above 128 µg/mL against M. morganii GC 4531. For the same molecule, the MIC with K. pneumoniae GC 4534, in the test on E. cloacae GC 3783, against P. aeruginosa GC 4532, against CNS GC 4537, against CNS GC 4538 and in the test with CNS GC 4547 was above 128 µg/mL throughout. For the same molecule, the minimum inhibitory concentration (MIC) against E. faecalis GC 2242 is 128 µg/mL (≈ 114 µM); against E. faecalis GC 4555 it was above 128 µg/mL; against E. faecalis GC 842 it was above 128 µg/mL; against S. aureus GC 1131, above 128 µg/mL; in the test on S. aureus GC 2216 it was above 128 µg/mL; in the test with S. aureus GC 4536 it was above 128 µg/mL. Besides, the minimum inhibitory concentration (MIC) in the test on E. coli GC 2203 and in the test on P. aeruginosa GC 2214 was above 128 µg/mL throughout.

For the molecule `COc1ccc(Cn2c(=O)ccn([C@@H]3OC([C@H](O)[C@H](NCCCNC(=O)[C@H](CCCCNC(=O)OCc4ccccc4)NC(=O)OCc4ccccc4)C(=O)OC(C)(C)C)[C@@H](O[Si](C)(C)C(C)(C)C)[C@H]3O[Si](C)(C)C(C)(C)C)c2=O)cc1` (stereo partly drawn) [Example 18, tert-Butyl (9S,16S)-9-{[(benzyloxy)carbonyl]amino}-16-[(R)-[(3R,4R,5R)-3,4-bis{[tert-butyl(dimethyl)silyl]oxy}-5-(3-(4-methoxybenzyl)-2,4-dioxo-3,4-dihydro-1(2H)-pyrimidinyl)tetrahydro-2-furanyl](hydroxy)methyl]-3,10-dioxo-1-phenyl-2-oxa-4,11,15-triazaheptadecan-17-oate], the MIC with E. coli GC 4559, against E. coli GC 4560, against E. coli GC 3226, in the test on S. marcescens GC 4077, in the test on C. albicans GC 3066 and with M. morganii GC 4531 was above 128 µg/mL each time. Moreover, the MIC against K. pneumoniae GC 4534, in the test with E. cloacae GC 3783, against P. aeruginosa GC 4532, with CNS GC 4537, with CNS GC 4538 and against CNS GC 4547 was above 128 µg/mL each time. For the same molecule, the minimum inhibitory concentration (MIC) with E. faecalis GC 2242 is 128 µg/mL (≈ 109 µM); against E. faecalis GC 4555 it was above 128 µg/mL; in the test on E. faecalis GC 842, above 128 µg/mL; with S. aureus GC 1131 it was above 128 µg/mL; with S. aureus GC 2216, above 128 µg/mL; against S. aureus GC 4536 it was above 128 µg/mL. Moreover, the minimum inhibitory concentration (MIC) against E. coli GC 2203 and against P. aeruginosa GC 2214 was above 128 µg/mL throughout.

As to `COc1ccc(Cn2c(=O)ccn([C@@H]3OC([C@H](O)[C@H](NCCCNC(=O)[C@@H](N)CCCCN)C(=O)OC(C)(C)C)[C@@H](O[Si](C)(C)C(C)(C)C)[C@H]3O[Si](C)(C)C(C)(C)C)c2=O)cc1` (stereo partly drawn) [Example 19, tert-Butyl (2S,3R)-3-[(3R,4R,5R)-3,4-bis{[tert-butyl(dimethyl)silyl]oxy}-5-(3-(4-methoxybenzyl)-2,4-dioxo-3,4-dihydro-1(2H)-pyrimidinyl)tetrahydro-2-furanyl]-2-[(3-{[(2S)-2,6-diaminohexanoyl]amino}propyl)amino]-3-hydroxypropanoate], the MIC was above 128 µg/mL with E. coli GC 4559 (E. coli GC 4559, read-out: MIC); 8 µg/mL (≈ 8.82 µM) in the test on E. coli GC 4560 (E. coli GC 4560, read-out: MIC); 128 µg/mL (≈ 141 µM) with E. coli GC 3226 (E. coli GC 3226, read-out: MIC); 128 µg/mL (≈ 141 µM) in the test on S. marcescens GC 4077 (setting [1]); above 128 µg/mL with C. albicans GC 3066 (setting [2]); 128 µg/mL (≈ 141 µM) in the test with M. morganii GC 4531 (setting [3]). Moreover, the minimum inhibitory concentration (MIC) in the test with K. pneumoniae GC 4534 (setting [4]) was above 128 µg/mL; in the test on E. cloacae GC 3783 (setting [5]), above 128 µg/mL; in the test with P. aeruginosa GC 4532 (setting [6]), 128 µg/mL (≈ 141 µM); with CNS GC 4537 (CNS GC 4537, read-out: MIC), 8 µg/mL (≈ 8.82 µM); in the test on CNS GC 4538 (CNS GC 4538, read-out: MIC), 8 µg/mL (≈ 8.82 µM); in the test with CNS GC 4547 (CNS GC 4547, read-out: MIC) it was 16 µg/mL (≈ 17.6 µM). In addition, the MIC in the test with E. faecalis GC 2242 (setting [7]) was found to be 8 µg/mL (≈ 8.82 µM); in the test on E. faecalis GC 4555 (setting [8]), 8 µg/mL (≈ 8.82 µM); in the test with E. faecalis GC 842 (setting [9]) it was 8 µg/mL (≈ 8.82 µM); in the test on S. aureus GC 1131 (setting [10]), 4 µg/mL (≈ 4.41 µM); in the test on S. aureus GC 2216 (setting [11]), 8 µg/mL (≈ 8.82 µM); in the test with S. aureus GC 4536 (setting [12]) it was 8 µg/mL (≈ 8.82 µM). Moreover, the MIC in the test on E. coli GC 2203 (E. coli GC 2203, read-out: MIC) came to 128 µg/mL (≈ 141 µM); with P. aeruginosa GC 2214 (setting [13]), 128 µg/mL (≈ 141 µM).

With `COc1ccc(Cn2c(=O)ccn([C@@H]3OC([C@H](O)[C@H](NCCCNC(=O)[C@H](CCC(=O)OC(C)(C)C)NC(=O)OCc4ccccc4)C(=O)OC(C)(C)C)[C@@H](O[Si](C)(C)C(C)(C)C)[C@H]3O[Si](C)(C)C(C)(C)C)c2=O)cc1` (stereo partly drawn) [Example 20, tert-Butyl (5S,12S)-12-[(R)-[(3R,4R,5R)-3,4-bis{[tert-butyl(dimethyl)silyl]oxy}-5-(3-(4-methoxybenzyl)-2,4-dioxo-3,4-dihydro-1(2H)-pyrimidinyl)tetrahydro-2-furanyl](hydroxy)methyl]-5-[3-(tert-butoxy)-3-oxopropyl]-3,6-dioxo-1-phenyl-2-oxa-4,7,11-triazatridecan-13-oate], the MIC with E. coli GC 4559 is above 128 µg/mL; with E. coli GC 4560, above 128 µg/mL; in the test with E. coli GC 3226, above 128 µg/mL; in the test on S. marcescens GC 4077, above 128 µg/mL; in the test with C. albicans GC 3066, 128 µg/mL (≈ 117 µM); against M. morganii GC 4531, above 128 µg/mL. Also, the MIC was above 128 µg/mL in the test on K. pneumoniae GC 4534; above 128 µg/mL against E. cloacae GC 3783; 128 µg/mL (≈ 117 µM) against P. aeruginosa GC 4532; above 128 µg/mL against CNS GC 4537; above 128 µg/mL against CNS GC 4538; above 128 µg/mL against CNS GC 4547. In addition, the MIC against E. faecalis GC 2242, in the test on E. faecalis GC 4555, in the test on E. faecalis GC 842, in the test with S. aureus GC 1131, in the test on S. aureus GC 2216 and in the test on S. aureus GC 4536 was above 128 µg/mL each time. For the same molecule, the values for the MIC against E. coli GC 2203 and in the test with P. aeruginosa GC 2214 were above 128 µg/mL and 128 µg/mL (≈ 117 µM), respectively.
